We go through 1 compound from patent US20230151386A1, “Apparatus for Improved Transfection Efficiency and / or Protein Expression and Method of Use Thereof” (St Andrews Pharmaceutical Technology Ltd., priority 2020, published 2023).

This assay deals with p53alpha. The experiment in a line: Western blot of p53 isoforms in HCT 116 cells after doxorubicin with or without pulsed technology. It counts as cell-based, Human. The settings on record: 0.25 μM for 1 hour. Here is the method:
Human Colon Tumour (HCT) 116 cells (adherent cells) (ATCC, USA-ATCC® CCL-247™) were seeded at a density of 3×10^5 cells per well in two CELLSTAR®6-well plates (9.6 cm^2) in a final volume of 5 mL Dulbeccos Modified Eagle Medium (DMEM) (Thermo Fisher, USA)+10% Fetal Bovine Serum (FBS) (Hyclone, USA) 24 hours before treatment.
The naked agent used was Doxorubicin (0.25 μM) (Sigma Aldrich) in absolute ethanol and was given to the cells for a 1 hour treatment period and incubated at 37° C., at 5% CO^2.
After treatment the media was removed and fresh media was added to the cells. One of the plates was incubated directly at 37° C., at 5% CO^2 and the second plate was placed in a different incubator and pulsed using the pulsed technology of the present invention at 37° C., at 5% CO^2.
Protein extracts were collected at 3 hours, 6 hours, 9 hours, 16 hours or 24 hours of treatment for analysis by SDS-page.
1. For protein extraction the cells were washed twice with ice-cold PBS and then lysed in NP-40 extraction buffer (50 mM Tris ph 7.5; 10% glycerol; 0.1% “NP-40 Alternative” (Merck Millipore, USA); 100 mM NaCl; 0.2 mM EDTA) supplemented with 1× Complete™ Protease Inhibitor Cocktail (Roche, Switzerland). Extracts were sonicated (20 seconds, 20% amplitude) and protein concentration was determined using BCA™ Protein Assay Kit (ThermoFisher Scientific USA) according to the manufacturers recommendations.
1. Protein extracts (15/20 μg depending on the experiment) were supplemented with 0.1M dithiothreitol (DTT) and 1×LDS buffer (Invitrogen, USA) and were heated at 95° C. for 10 min before loading on NuPAGE 10% Bis-Tris polyacrylamide gels (Invitrogen, USA).
2. Protein samples were separated by electrophoresis (100V) using 1×MOPS Running Buffer. Transfer of proteins was performed at 12V overnight onto a nitrocellulose membrane (Protran 0.1 μm from GE Healthcare, USA) in 1× Transfer Buffer supplemented with 20% methanol. 1× Transfer Buffer is prepared from 10× Wet blot solution containing 144 g of glycine and 30 g Tris-Base in a final volume of 1 L milli-Q water.
3. Membranes were blocked for 30 min in 5% BSA diluted in PBS—0.1% Tween20 before being incubated overnight with a primary antibody (Mouse monoclonal antibody D01). After a wash of 15 min. in PBS-Tween20, membranes were incubated for 1 h with a corresponding secondary antibody (HRP conjugated Donkey anti Mouse). […]
At the end of the incubation membranes were washed twice with PBS-Tween20 for 15 min followed by a final 10 min. wash with PBS. The chemiluminescence signal was detected on Hyperfilm™ ECL (Cytiva, USA) using the Amersham ECL Western Blotting Detection System (Cytiva, USA).
A general note: Immunoblotting shows a protein as a band on a membrane.

Take `COc1cccc2c1C(=O)c1c(O)c3c(c(O)c1C2=O)C[C@@](O)(C(=O)CO)C[C@@H]3O[C@H]1C[C@H](N)[C@H](O)[C@H](C)O1` [doxorubicin, Doxorubicin]: the “H2AX expression (ionising radiation marker, Western Blot)” value (pulsed technology vs control arms, FIG. 13) is given as “no observed change”. The “p53alpha expression (Western Blot)” value is, setting by setting: (pulsed technology vs control, after 16 hours, FIG. 14) “significant overproduction”; (then pulsed technology vs control, 3 to 24 hours, FIG. 13) “upregulated”. Besides, the “expression of other p53 isoforms d133p53alpha, d133p53beta and d160p53beta (Western Blot)” value (then pulsed technology vs control, FIG. 13) is “more upregulated”.
